The source of these data is PMC8105722 (The Journal of Experimental Medicine, 2021).

The target of the experiment is Rv0812 (Mycobacterium tuberculosis, UniProt Q79FW0).
Chain of Rv0812 (Q79FW0 whole entry): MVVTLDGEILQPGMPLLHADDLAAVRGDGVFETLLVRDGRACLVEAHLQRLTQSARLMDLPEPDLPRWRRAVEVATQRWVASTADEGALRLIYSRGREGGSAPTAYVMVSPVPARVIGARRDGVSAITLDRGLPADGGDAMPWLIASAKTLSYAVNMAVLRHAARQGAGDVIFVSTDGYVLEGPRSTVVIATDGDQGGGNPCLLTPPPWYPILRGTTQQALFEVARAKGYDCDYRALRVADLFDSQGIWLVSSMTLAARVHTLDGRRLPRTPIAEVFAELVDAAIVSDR

Consider `Cc1ncc(COP(=O)(O)O)c(C=O)c1O` [PLP], for which the “X-ray crystal structure (cocrystal with 0.2 mM PLP)” value is recorded as “PLP was fit into the corresponding electron density”.
